Key:
Assay in all cases: Post-emergence/greenhouse herbicidal test
Assay type in all cases: in vivo
Avena fatua = test system: Avena fatua
Text: (§1) Procarbazone- and flucarbazone-sodium were used as 70 WG formulation. Fenoxaprop-P-ethyl was used in a mixture with mefenpyr-diethyl (75 g of mefenpyr-diethyl/l) as Ralon® Super 69 EW. Cinidon-ethyl and florasulam and iodosufuron in a mixture with mefenpyr-diethyl were used in the form of the finished formulations Lotus® 200 EC, Primus® 50 SC and Hussar® 5 WG (15% mefenpyr-diethyl), respectively. Amicarbazone was used as 70 WG formulation.
(§2) In pre- and post-emergence experiments, the spray liquor is usually admixed with a surfactant (Renex 36), at a concentration of 0.1%.
(§3) Test plants are grown under controlled conditions (temperature and light).
(§4) Following the spray application, the plant containers are kept in a greenhouse under constant light and temperature conditions.
(§5) After about 3 weeks, the degree of damage to the plants is rated in % damage in comparison to the development of the untreated control.
(§6) 0% =no damage (like untreated control)
(§7) 100% =total destruction/damage

Abutilon theophrasti = conditions: 30 g of ai/ha, post-emergence, about 3 weeks
Text: as §1, §2, §3, §4, §5, §6, §7

Xanthium strumarium = conditions: post-emergence, about 3 weeks
Text: as §1, §2, §3, §4, §5, §6, §7

Matricaria inodora = conditions: application rate 30 g ai/ha
Text: as §1, §2, §3, §4, §5, §6, §7

Viola arvensis = conditions: post-emergence, about 3 weeks
Text: as §1, §2, §3, §4, §5, §6, §7

Eriochloa villosa = conditions: post-emergence, about 3 weeks
Text: as §1, §2, §3, §4, §5, §6, §7

Cassia tora = test system: Cassia tora
Text: as §1, §2, §3, §4, §5, §6, §7

Stellaria media = conditions: post-emergence, about 3 weeks
Text: as §1, §2, §3, §4, §5, §6, §7

Bromus secalinus = test system: Bromus secalinus
Text: as §1, §2, §3, §4, §5, §6, §7

Echinochloa crus-galli = test system: Echinochloa crus-galli
Text: as §1, §2, §3, §4, §5, §6, §7

Cyperus esculentus = conditions: post-emergence, about 3 weeks
Text: as §1, §2, §3, §4, §5, §6, §7

Lolium perenne = conditions: post-emergence, about 3 weeks
Text: as §1, §2, §3, §4, §5, §6, §7

Alopecurus myosuroides = conditions: post-emergence, about 3 weeks
Text: as §1, §2, §3, §4, §5, §6, §7

Datura strumarium = conditions: post-emergence, about 3 weeks
Text: as §1, §2, §3, §4, §5, §6, §7

Ipomoea hederacea = conditions: post-emergence, about 3 weeks
Text: as §1, §2, §3, §4, §5, §6, §7

Galium aparine = conditions: post-emergence, about 3 weeks
Text: as §1, §2, §3, §4, §5, §6, §7

Chenopodium album = conditions: post-emergence, about 3 weeks
Text: as §1, §2, §3, §4, §5, §6, §7

Polygonum convolvolus = test system: Polygonum convolvolus
Text: as §1, §2, §3, §4, §5, §6, §7

Solanum nigrum = conditions: post-emergence, about 3 weeks
Text: as §1, §2, §3, §4, §5, §6, §7

Amaranthus retroflexus = conditions: post-emergence, about 3 weeks
Text: as §1, §2, §3, §4, §5, §6, §7

Setaria viridis = conditions: application rate 4 g ai/ha; iodosulfuron tested as Hussar (iodosulfuron 5% & mefenpyr 15%)
[1] = 30 g of ai/ha, post-emergence, about 3 weeks
[2] = 8 g of ai/ha, post-emergence, about 3 weeks
[3] = 15 g of ai/ha, post-emergence, about 3 weeks
[4] = 60 g of ai/ha, post-emergence, about 3 weeks
[5] = 125 g of ai/ha, post-emergence, about 3 weeks
[6] = application rate 2 g ai/ha, iodosulfuron tested as Hussar (iodosulfuron 5% & mefenpyr 15%)
[7] = application rate 8 g ai/ha, iodosulfuron tested as Hussar (iodosulfuron 5% & mefenpyr 15%)

CC(C)c1nn(C(=O)NC(C)(C)C)c(=O)n1N [Amicarbazone, 4-amino-N-(1,1-dimethyl-ethyl)-4,5-dihydro-3-(1-methyl-ethyl)-5-oxo-1H-1,2,4-triazole-1-carboxamide]
80%: Abutilon theophrasti observed (Abutilon theophrasti) | Xanthium strumarium observed (Xanthium strumarium; 30 g of ai/ha) | Stellaria media observed (Stellaria media; 60 g of ai/ha)
40%: Cassia tora observed (Cassia tora; [1])
70%: Viola arvensis observed (Viola arvensis; 30 g of ai/ha) | Eriochloa villosa observed (Eriochloa villosa; 125 g of ai/ha)
60: Matricaria inodora observed (Matricaria inodora)
0: Avena fatua observed (Avena fatua; application rate 30 g ai/ha)

CCOC(=O)C(Cl)=Cc1cc(N2C(=O)C3=C(CCCC3)C2=O)ccc1Cl [Cinidon-ethyl, ethyl 2-chloro-3-[2-chloro-5-(1,3,4,5,6,7-hexahydro-1,3-dioxo-2H-isoindol-2-yl)-phenyl]-2-propanoate]
30%: Viola arvensis observed (Viola arvensis; 15 g of ai/ha) | Eriochloa villosa observed (Eriochloa villosa; 15 g of ai/ha)
20%: Bromus secalinus observed (Bromus secalinus; [3]) | Cyperus esculentus observed (Cyperus esculentus; 15 g of ai/ha)
95%: Cassia tora observed (Cassia tora; [3])
0%: Avena fatua observed (Avena fatua; [2]) | Bromus secalinus observed (Bromus secalinus; [2]) | Viola arvensis observed (Viola arvensis; 8 g of ai/ha) | Echinochloa crus-galli observed (Echinochloa crus-galli; [2]) | Echinochloa crus-galli observed (Echinochloa crus-galli; [3]) | Cyperus esculentus observed (Cyperus esculentus; 8 g of ai/ha) | Lolium perenne observed (Lolium perenne; 8 g of ai/ha) | Alopecurus myosuroides observed (Alopecurus myosuroides; 8 g of ai/ha) | Alopecurus myosuroides observed (Alopecurus myosuroides; 15 g of ai/ha)
10%: Avena fatua observed (Avena fatua; [3])

CCOC(=O)[C@@H](C)Oc1ccc(Oc2nc3ccc(Cl)cc3o2)cc1 [Fenoxaprop-P-ethyl, ethyl (R)-2-[4-(6-chloro-benzoxazol-2-yl-oxy)-phenoxy]-propanoate]
0%: Datura strumarium observed (Datura strumarium; 30 g of ai/ha) | Datura strumarium observed (Datura strumarium; 60 g of ai/ha) | Ipomoea hederacea observed (Ipomoea hederacea; 30 g of ai/ha) | Ipomoea hederacea observed (Ipomoea hederacea; 60 g of ai/ha) | Galium aparine observed (Galium aparine; 15 g of ai/ha) | Galium aparine observed (Galium aparine; 30 g of ai/ha) | Galium aparine observed (Galium aparine; 60 g of ai/ha) | Xanthium strumarium observed (Xanthium strumarium; 30 g of ai/ha) | Xanthium strumarium observed (Xanthium strumarium; 60 g of ai/ha) | Bromus secalinus observed (Bromus secalinus; [1]) | Bromus secalinus observed (Bromus secalinus; [4]) | Chenopodium album observed (Chenopodium album; 30 g of ai/ha) | Chenopodium album observed (Chenopodium album; 60 g of ai/ha) | Polygonum convolvolus observed (Polygonum convolvolus; [1]) | Polygonum convolvolus observed (Polygonum convolvolus; [4]) | Solanum nigrum observed (Solanum nigrum; 15 g of ai/ha) | Solanum nigrum observed (Solanum nigrum; 30 g of ai/ha) | Solanum nigrum observed (Solanum nigrum; 60 g of ai/ha) | Viola arvensis observed (Viola arvensis; 15 g of ai/ha) | Viola arvensis observed (Viola arvensis; 30 g of ai/ha) | Viola arvensis observed (Viola arvensis; 60 g of ai/ha) | Amaranthus retroflexus observed (Amaranthus retroflexus; 30 g of ai/ha) | Amaranthus retroflexus observed (Amaranthus retroflexus; 60 g of ai/ha) | Lolium perenne observed (Lolium perenne; 30 g of ai/ha) | Lolium perenne observed (Lolium perenne; 60 g of ai/ha) | Alopecurus myosuroides observed (Alopecurus myosuroides; 15 g of ai/ha) | Alopecurus myosuroides observed (Alopecurus myosuroides; 30 g of ai/ha) | Stellaria media observed (Stellaria media; 30 g of ai/ha) | Stellaria media observed (Stellaria media; 60 g of ai/ha)

CC(C)N(C(=O)COc1nnc(C(F)(F)F)s1)c1ccc(F)cc1 [Flufenacet, N-(4-fluorophenyl)-N-isopropyl-2-(5-trifluoromethyl-1,3,4-thiadiazol-2-yl-oxy)-acetamide]
0%: Polygonum convolvolus observed (Polygonum convolvolus; [5]) | Amaranthus retroflexus observed (Amaranthus retroflexus; 60 g of ai/ha) | Amaranthus retroflexus observed (Amaranthus retroflexus; 125 g of ai/ha)
70%: Avena fatua observed (Avena fatua; [5])

COC(=O)c1ccc(I)cc1S(=O)(=O)NC(=O)Nc1nc(C)nc(OC)n1.[Na] [Iodosufuron, N-(4-methoxy-6-methyl-1,3,5-triazin-2-yl)-N′-(5-iodo-2-methoxycarbonyl-phenylsulphonyl)-urea sodium salt]
70%: Avena fatua observed (Avena fatua; [2])
20: Echinochloa crus-galli observed (Echinochloa crus-galli; [6])
0: Bromus secalinus observed (Bromus secalinus; [6]) | Bromus secalinus observed (Bromus secalinus; application rate 4 g ai/ha, iodosulfuron tested as Hussar (iodosulfuron 5% & mefenpyr 15%)) | Bromus secalinus observed (Bromus secalinus; [7]) | Setaria viridis observed (Setaria viridis)
10: Avena fatua observed (Avena fatua; Table B-62, application rate 2 g ai/ha, iodosulfuron tested as Hussar (iodosulfuron 5% & mefenpyr 15%))
80: Polygonum convolvolus observed (Polygonum convolvolus; [6]) | Cassia tora observed (Cassia tora; [7])

— patent US20030211942A1, “Aryl sulfonyl amino carbonyl triazole based selective herbicides” (priority 2000, published 2003)
